Test results published in PubChem BioAssay AID328 (DTP/NCI, 2004).
Several values for one entry are separate records, joined by “and”; a condition that tells them apart may be missing. Identical values can stand only once. Toxic doses and inconclusive results are not listed.

System: BDF1 mice, P388 leukemia ip, median survival T/C
Assay: NCI In Vivo Anticancer Drug Screen. Data for tumor model P388 Leukemia (intraperitoneal) in B6D2F1 (BDF1) mice
Settings: endpoint: median survival time, higher = longer survival
How it was run: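 Transplantable tumour in mice; compound vs vehicle dosing; survival scored; ratio of treated to control reported.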

[1] = dose: 100.0 mg/kg/injection, schedule: Q04DX003 (ip), vehicle: saline with Tween-80
[2] = dose: 200.0 mg/kg/injection, schedule: Q04DX003 (ip), vehicle: saline with Tween-80
[3] = dose: 100.0 mg/kg/injection, schedule: Q04DX003 (ip), vehicle: Klucel (hydroxypropylcellulose) (HPC)
[4] = dose: 200.0 mg/kg/injection, schedule: Q04DX003 (ip), vehicle: Klucel (hydroxypropylcellulose) (HPC)
[5] = dose: 100.0 mg/kg/injection, schedule: Q04DX003 (ip), vehicle: saline
[6] = dose: 50.0 mg/kg/injection, schedule: Q04DX003 (ip), vehicle: saline
[7] = dose: 12.5 mg/kg/injection, schedule: Q01DX009 (ip), vehicle: Klucel (hydroxypropylcellulose) (HPC)
[8] = dose: 25.0 mg/kg/injection, schedule: Q01DX009 (ip), vehicle: Klucel (hydroxypropylcellulose) (HPC)
[9] = dose: 50.0 mg/kg/injection, schedule: Q01DX009 (ip), vehicle: Klucel (hydroxypropylcellulose) (HPC)
[10] = dose: 50.0 mg/kg/injection, schedule: Q04DX003 (ip), vehicle: Klucel (hydroxypropylcellulose) (HPC)

Compound: CC1=CC2C(O)(CC(CO)=CC3C4C(C)(C)C4(OC(=O)c4ccccc4)C(OC(=O)c4ccccc4)C(C)C32O)C1=O (stereo unspecified)
- T/C (dose: 0.03 mg/kg/injection, schedule: Q01DX009 (ip), vehicle: Klucel (hydroxypropylcellulose) (HPC)): 95 % of control
- T/C (dose: 0.03 mg/kg/injection, schedule: Q01DX009 (ip), vehicle: saline + alcohol): 93 % of control
- T/C (dose: 0.06 mg/kg/injection, schedule: Q01DX009 (ip), vehicle: Klucel (hydroxypropylcellulose) (HPC)): 99 % of control
- T/C (dose: 0.06 mg/kg/injection, schedule: Q01DX009 (ip), vehicle: saline + alcohol): 94 % of control
- T/C (dose: 0.12 mg/kg/injection, schedule: Q01DX009 (ip), vehicle: Klucel (hydroxypropylcellulose) (HPC)): 99 % of control
- T/C (dose: 0.12 mg/kg/injection, schedule: Q01DX009 (ip), vehicle: saline + alcohol): 112 % of control
- T/C (dose: 0.25 mg/kg/injection, schedule: Q01DX009 (ip), vehicle: Klucel (hydroxypropylcellulose) (HPC)): 94 % of control
- T/C (dose: 0.25 mg/kg/injection, schedule: Q01DX009 (ip), vehicle: saline + alcohol): 119 % of control
- T/C (dose: 0.5 mg/kg/injection, schedule: Q01DX009 (ip), vehicle: Klucel (hydroxypropylcellulose) (HPC)): 89 % of control
- T/C (dose: 0.5 mg/kg/injection, schedule: Q01DX009 (ip), vehicle: saline + alcohol): 119 % of control
- T/C (dose: 1.0 mg/kg/injection, schedule: Q01DX009 (ip), vehicle: Klucel (hydroxypropylcellulose) (HPC)): 110 % of control
- T/C (dose: 1.0 mg/kg/injection, schedule: Q01DX009 (ip), vehicle: saline + alcohol): 92 % of control
- T/C (dose: 3.1 micrograms/kg/injection, schedule: Q01DX009 (ip), vehicle: gum acacia): 116 % of control
- T/C (dose: 3.1 micrograms/kg/injection, schedule: Q01DX009 (ip), vehicle: saline + alcohol): 172 % of control
- T/C (dose: 3.1 micrograms/kg/injection, schedule: Q01DX009 (ip), vehicle: saline with Tween-80): 88 % of control and 118 % of control
- T/C (dose: 6.2 micrograms/kg/injection, schedule: Q01DX009 (ip), vehicle: gum acacia): 110 % of control
- T/C (dose: 6.2 micrograms/kg/injection, schedule: Q01DX009 (ip), vehicle: saline + alcohol): 118 % of control
- T/C (dose: 6.2 micrograms/kg/injection, schedule: Q01DX009 (ip), vehicle: saline with Tween-80): 119 % of control
- T/C (dose: 12.5 micrograms/kg/injection, schedule: Q01DX009 (ip), vehicle: gum acacia): 107 % of control
- T/C (dose: 12.5 micrograms/kg/injection, schedule: Q01DX009 (ip), vehicle: saline + alcohol): 110 % of control
- T/C (dose: 12.5 micrograms/kg/injection, schedule: Q01DX009 (ip), vehicle: saline with Tween-80): 98 % of control and 121 % of control
- T/C (dose: 25.0 micrograms/kg/injection, schedule: Q01DX009 (ip), vehicle: gum acacia): 108 % of control
- T/C (dose: 25.0 micrograms/kg/injection, schedule: Q01DX009 (ip), vehicle: saline + alcohol): 110 % of control
- T/C (dose: 25.0 micrograms/kg/injection, schedule: Q01DX009 (ip), vehicle: saline with Tween-80): 93 % of control
- T/C (dose: 50.0 micrograms/kg/injection, schedule: Q01DX009 (ip), vehicle: gum acacia): 110 % of control
- T/C (dose: 50.0 micrograms/kg/injection, schedule: Q01DX009 (ip), vehicle: saline + alcohol): 116 % of control
- T/C (dose: 100.0 micrograms/kg/injection, schedule: Q01DX009 (ip), vehicle: gum acacia): 105 % of control
- T/C (dose: 100.0 micrograms/kg/injection, schedule: Q01DX009 (ip), vehicle: saline + alcohol): 110 % of control
- T/C (dose: 100.0 micrograms/kg/injection, schedule: Q01DX009 (ip), vehicle: saline with Tween-80): 104 % of control
- T/C (dose: 200.0 micrograms/kg/injection, schedule: Q01DX009 (ip), vehicle: gum acacia): 110 % of control
- T/C (dose: 200.0 micrograms/kg/injection, schedule: Q01DX009 (ip), vehicle: saline + alcohol): 150 % of control
- T/C (dose: 200.0 micrograms/kg/injection, schedule: Q01DX009 (ip), vehicle: saline with Tween-80): 107 % of control and 116 % of control
- T/C (dose: 400.0 micrograms/kg/injection, schedule: Q01DX009 (ip), vehicle: saline + alcohol): 116 % of control
- T/C (dose: 800.0 micrograms/kg/injection, schedule: Q01DX009 (ip), vehicle: gum acacia): 96 % of control
- T/C (dose: 800.0 micrograms/kg/injection, schedule: Q01DX009 (ip), vehicle: saline + alcohol): 96 % of control
- T/C (dose: 800.0 micrograms/kg/injection, schedule: Q01DX009 (ip), vehicle: saline with Tween-80): 98 % of control and 110 % of control

Compound: OC(CCCCl)CC(O)(C(F)(F)F)C(F)(F)F (stereo unspecified)
- T/C [1]: 100 % of control
- T/C [2]: 109 % of control

Compound: COc1ccc(C2=CCCC2)cc1
- T/C [3]: 108 % of control
- T/C [4]: 95 % of control
- T/C (dose: 400.0 mg/kg/injection, schedule: Q04DX003 (ip), vehicle: Klucel (hydroxypropylcellulose) (HPC)): 100 % of control

Compound: N#Cc1cnn2c(=O)[nH]cnc12
- T/C (dose: 50.0 mg/kg/injection, schedule: Q01DX009 (ip), vehicle: other): 100 % of control
- T/C (dose: 100.0 mg/kg/injection, schedule: Q01DX009 (ip), vehicle: other): 100 % of control
- T/C [5]: 100 % of control
- T/C (dose: 200.0 mg/kg/injection, schedule: Q01DX009 (ip), vehicle: other): 100 % of control
- T/C (dose: 200.0 mg/kg/injection, schedule: Q04DX003 (ip), vehicle: saline): 100 % of control
- T/C (dose: 400.0 mg/kg/injection, schedule: Q04DX003 (ip), vehicle: saline): 118 % of control

Compound: C=CCOc1ccc([N+](=O)[O-])cc1[N+](=O)[O-]
- T/C (dose: 100.0 mg/kg/injection, schedule: Q01DX001 (ip), vehicle: saline with Tween-80): 100 % of control
- T/C (dose: 200.0 mg/kg/injection, schedule: Q01DX001 (ip), vehicle: saline with Tween-80): 105 % of control
- T/C (dose: 400.0 mg/kg/injection, schedule: Q01DX001 (ip), vehicle: saline with Tween-80): 100 % of control

Compound: CCOCCN1CCN(CCCN2c3ccccc3Sc3ccc(C(F)(F)F)cc32)CC1
- T/C (dose: 6.25 mg/kg/injection, schedule: Q04DX003 (ip), vehicle: saline): 107 % of control and 112 % of control
- T/C (dose: 12.5 mg/kg/injection, schedule: Q04DX003 (ip), vehicle: saline): 116 % of control
- T/C [6]: 101 % of control

Compound: COc1cccc(NN)c1
- T/C (dose: 25.0 mg/kg/injection, schedule: Q01DX009 (ip), vehicle: saline): 113 % of control
- T/C (dose: 50.0 mg/kg/injection, schedule: Q01DX009 (ip), vehicle: saline): 104 % of control
- T/C [6]: 100 % of control
- T/C [5]: 91 % of control

Compound: Fc1ccc(P(c2ccc(F)cc2)c2ccc(F)cc2)cc1
- T/C (dose: 3.12 mg/kg/injection, schedule: Q01DX009 (ip), vehicle: Klucel (hydroxypropylcellulose) (HPC)): 92 % of control
- T/C (dose: 6.25 mg/kg/injection, schedule: Q01DX009 (ip), vehicle: Klucel (hydroxypropylcellulose) (HPC)): 92 % of control
- T/C [7]: 107 % of control
- T/C [8]: 100 % of control
- T/C [9]: 96 % of control
- T/C [10]: 100 % of control
- T/C [3]: 87 % of control
- T/C [4]: 95 % of control

Compound: Nc1nc(SCc2cccc(Br)c2)c2ncn(C3OC(CO)C(O)C3O)c2n1 (stereo unspecified)
- T/C [1]: 104 % of control
- T/C [2]: 122 % of control

Compound: CC(C)CCCCCCCCCCCCC(=O)NCC(=O)NC1C(C)OC(Nc2ncnc3nc[nH]c23)C(O)C1O (stereo unspecified)
- T/C (dose: 432.0 micrograms/kg/injection, schedule: Q04DX003 (ip), vehicle: saline): 110 % of control

Compound: c1ccc(C2C3(c4ccccc4)C4(c5ccccc5)OC(c5ccccc5)(c5ccccc54)C23c2ccccc2)cc1 (stereo unspecified)
- T/C [9]: 91 % of control
- T/C (dose: 100.0 mg/kg/injection, schedule: Q01DX009 (ip), vehicle: Klucel (hydroxypropylcellulose) (HPC)): 103 % of control
- T/C (dose: 200.0 mg/kg/injection, schedule: Q01DX009 (ip), vehicle: Klucel (hydroxypropylcellulose) (HPC)): 92 % of control

Compound: CCN(CC)c1ccc([N+](=O)[O-])c2no[n+]([O-])c12
- T/C (dose: 35.0 mg/kg/injection, schedule: Q01DX009 (ip), vehicle: saline with Tween-80): 91 % of control
- T/C (dose: 70.0 mg/kg/injection, schedule: Q01DX009 (ip), vehicle: saline with Tween-80): 94 % of control

Compound: CCOC(=O)C1(C)CCCCC1=O (stereo unspecified)
- T/C [1]: 95 % of control
- T/C [2]: 104 % of control
- T/C (dose: 400.0 mg/kg/injection, schedule: Q04DX003 (ip), vehicle: saline with Tween-80): 100 % of control

Compound: C[P+](c1ccc(F)cc1)(c1ccc(F)cc1)c1ccc(F)cc1
- T/C [7]: 86 % of control
- T/C [8]: 104 % of control
- T/C (dose: 25.0 mg/kg/injection, schedule: Q04DX003 (ip), vehicle: Klucel (hydroxypropylcellulose) (HPC)): 104 % of control
- T/C [9]: 109 % of control
- T/C [10]: 90 % of control
